Data from the supplement of paper PMC10307832.

Assays:
Assay in all cases: relative viability (nuclei count vs DMSO), 5 days (fraction); higher = more cells survive
YM155 + Pemetrexed = compound: COCC[n+]1c2c(n(Cc3cnccn3)c1C)C(=O)c1ccccc1C2=O [YM155] + Nc1nc2[nH]cc(CCc3ccc(C(=O)N[C@@H](CCC(=O)O)C(=O)O)cc3)c2c(=O)[nH]1 [Pemetrexed] (partner 0.2 µM)
Summary of the method: (§1)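 Lung cancer cell lines were pin-tool dosed in 1536-well plates on the day after seeding, with either a lone drug or a fixed anchor-drug dose plus five library-drug doses (not always all listed) in √10 steps. Nuclei were counted on 4× images after 5 days. Relative viability is the ratio of treated-well to vehicle-well nuclei counts, with each value a median of duplicate plates.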

[1] = compound: CC(C)(C)c1cc(NC(=O)Nc2ccc(-c3cn4c(n3)sc3cc(OCCN5CCOCC5)ccc34)cc2)no1 [Quizartinib] + CC(=O)c1c(C)c2cnc(Nc3ccc(N4CCNCC4)cn3)nc2n(C2CCCC2)c1=O [Palbociclib] (partner 0.5 µM)
Summary of the method: as §1

YM155 + Pictilisib = compound: COCC[n+]1c2c(n(Cc3cnccn3)c1C)C(=O)c1ccccc1C2=O [YM155] + CS(=O)(=O)N1CCN(Cc2cc3nc(-c4cccc5[nH]ncc45)nc(N4CCOCC4)c3s2)CC1 [Pictilisib] (partner 1 µM)
Summary of the method: as §1

Quizartinib + Alpelisib = compound: CC(C)(C)c1cc(NC(=O)Nc2ccc(-c3cn4c(n3)sc3cc(OCCN5CCOCC5)ccc34)cc2)no1 [Quizartinib] + Cc1nc(NC(=O)N2CCC[C@H]2C(N)=O)sc1-c1ccnc(C(C)(C)C(F)(F)F)c1 [Alpelisib] (partner 2 µM)
Summary of the method: as §1

Cell Line | relative viability (YM155 + Pemetrexed; first compound 0.002 µM) | relative viability (YM155 + Pemetrexed; first compound 0.006325 µM) | relative viability (YM155 + Pemetrexed; first compound 0.02 µM) | relative viability (YM155 + Pemetrexed; first compound 0.06325 µM) | relative viability ([1]; first compound 0.001 µM) | relative viability ([1]; first compound 0.003162 µM) | relative viability ([1]; first compound 0.01 µM) | relative viability ([1]; first compound 0.03162 µM) | relative viability ([1]; first compound 0.1 µM) | relative viability (YM155 + Pictilisib; first compound 0.002 µM) | relative viability (YM155 + Pictilisib; first compound 0.006325 µM) | relative viability (YM155 + Pictilisib; first compound 0.02 µM) | relative viability (YM155 + Pictilisib; first compound 0.06325 µM) | relative viability (Quizartinib + Alpelisib; first compound 0.001 µM) | relative viability (Quizartinib + Alpelisib; first compound 0.003162 µM) | relative viability (Quizartinib + Alpelisib; first compound 0.01 µM) | relative viability (Quizartinib + Alpelisib; first compound 0.03162 µM) | relative viability (Quizartinib + Alpelisib; first compound 0.1 µM)
NCI-H441 | 0.249 | 0.267 | 0.293 | 0.198 | 0.191 | 0.222 | 0.169 | 0.191 | 0.219 | 0.539 | 0.527 | 0.47 | 0.381 | 0.656 | 0.541 | 0.885 | 0.733 | 0.779
NCI-H460 | 0.072 | 0.0667 | 0.0671 | 0.0598 |  | 0.136 | 0.188 |  | 0.125 | 0.355 | 0.351 | 0.413 | 0.451 | 0.358 | 0.458 | 0.463 |  | 0.406
NCI-H520 | 0.534 | 0.74 | 0.685 | 0.694 |  | 0.257 | 0.251 | 0.196 | 0.175 | 0.236 | 0.298 | 0.255 | 0.293 | 0.792 | 0.768 | 0.929 | 0.837 | 0.597
NCI-H647 | 0.189 | 0.171 | 0.173 | 0.164 | 0.371 | 0.348 | 0.413 | 0.403 | 0.511 | 0.352 | 0.345 | 0.399 | 0.213 | 1.01 | 1.06 | 1.25 | 1.13 | 1.33
NCI-H650 | 0.834 | 0.744 | 0.966 | 1.08 | 0.355 | 0.309 | 0.361 | 0.336 | 0.355 | 0.88 | 0.843 | 0.953 | 0.683 | 1.02 | 1.12 | 1.14 | 1.14 | 1.14
NCI-H661 | 0.935 | 0.961 | 0.919 | 0.485 | 0.369 | 0.348 | 0.391 | 0.384 | 0.339 | 0.385 | 0.422 | 0.492 | 0.453 | 0.594 | 0.708 | 0.384 | 0.565 | 0.905
NCI-H838 | 0.276 | 0.232 | 0.225 | 0.216 | 0.212 | 0.244 | 0.205 | 0.217 | 0.179 | 0.386 | 0.521 | 0.536 | 0.299 | 0.876 | 0.942 | 0.958 | 0.968 | 0.593
NCI-H1355 | 0.979 | 1.07 | 1.04 | 0.997 | 0.379 | 0.378 | 0.415 | 0.36 | 0.363 | 0.403 | 0.484 | 0.462 | 0.514 | 0.814 | 0.927 | 0.812 | 0.865 | 0.827
NCI-H1395 | 0.857 | 0.737 | 1.03 | 0.906 | 0.549 | 0.573 | 0.668 | 0.591 | 0.598 | 0.587 | 0.546 | 0.622 | 0.673 | 1.05 | 1.01 | 1.21 | 1.06 | 0.995
NCI-H1437 | 0.297 | 0.305 | 0.33 | 0.234 | 0.298 | 0.288 | 0.32 | 0.299 | 0.261 | 0.417 | 0.404 | 0.468 | 0.507 | 0.911 | 0.883 | 1.13 | 0.749 | 0.711
NCI-H1651 | 0.598 | 0.599 | 0.6 | 0.615 | 0.456 | 0.479 | 0.54 | 0.517 | 0.566 | 0.542 | 0.589 | 0.556 | 0.473 | 0.749 | 0.872 | 1.04 | 0.751 | 0.904
NCI-H1666 | 0.837 | 0.881 | 0.854 | 0.868 | 0.618 | 0.66 | 0.683 | 0.638 | 0.637 | 0.455 |  | 0.404 | 0.484 | 0.793 | 0.956 | 1.03 | 0.742 | 1.02
NCI-H1734 | 0.375 | 0.404 | 0.399 | 0.452 | 0.277 | 0.338 | 0.349 | 0.341 | 0.347 | 0.414 | 0.454 | 0.491 | 0.533 | 0.561 | 0.716 | 0.642 | 0.699 | 0.665
NCI-H1755 | 0.647 | 0.42 | 0.359 | 0.434 | 0.418 | 0.451 | 0.471 | 0.446 | 0.41 | 0.396 | 0.437 | 0.428 | 0.513 | 0.798 | 0.851 | 0.975 | 0.917 | 0.923
NCI-H1792 | 0.713 | 0.762 | 0.805 | 0.971 |  | 0.654 | 0.702 | 0.617 | 0.66 | 0.331 | 0.289 | 0.318 | 0.267 | 0.799 | 0.667 | 0.711 | 0.499 | 0.703
NCI-H1793 | 0.708 | 0.896 | 1.03 | 0.954 | 0.331 | 0.277 | 0.33 | 0.329 | 0.34 |  | 0.303 | 0.318 | 0.211 | 0.588 | 0.875 | 0.788 | 0.731 | 0.798
NCI-H1915 | 0.481 | 0.494 | 0.439 | 0.458 | 0.507 | 0.433 | 0.482 | 0.552 | 0.474 | 0.904 | 0.834 | 0.88 | 0.667 | 1.03 | 1.01 | 1.06 | 1.11 | 1.16
NCI-H1944 | 0.74 | 0.559 | 0.587 | 0.641 | 0.345 | 0.306 | 0.293 | 0.35 | 0.294 | 0.358 | 0.339 | 0.363 | 0.379 | 0.691 | 0.826 | 0.898 | 0.89 | 0.805
